Results as given in US20080171729A1, “Use Of A Steroid For Enhancement Of Skin Permeability” (Novartis AG, priority 2004, published 2008).

Experiment: Skin penetration/permeation assay in static Franz-type diffusion cells, untreated or corticosteroid pre-treated split-thickness skin
Format: in vitro ADME, domestic pigs
Experimental: Three young, male castrated domestic pigs with body weights of approximately 15 kg are used as skin donors. The animals are obtained from a local breeder and maintained under standardized conditions (22±1°, 55±5% relative humidity, 10 changes of fresh air/hour, 12 hours day/12 hours night cycle). After a settling-in period of 7 days the pigs are treated topically on test areas on the dorsolateral back • with CS solutions in EtOH/propylene glycol (3+7, v/v) as a solvent, and • contra-laterally with solvent alone, twice daily for 5 days. HC (Sigma) at 1.0%, MOM (Sequoia Research Products) at 0.1% and CLO (Sigma) at 0.05% are used as CS. The CS-samples and solvent alone are applied in volumes of 50 μl to skin areas of 3.5×6.5 cm each. All three CS and solvent alone are applied to all animals. 16 hours after the last application the animals are killed and the treated skin samples are dissected. Full-thickness skin samples are dissected from vehicle- and CS-treated sites and cut into 0.4 mm split-thickness skin samples with a dermatome (Aesculap®). The samples include the epidermal layers and the superficial part of the dermis but no deep dermal layers and no subcutaneous fat. […] Schmook F B, Stütz A, Reinhardt J, Skin Pharmacol 1993; 6: 116-124. PBS/EtOH 3:1 is used as receptor phase. All experiments are performed at 32° in triplicates for 48 hours. Test compounds are applied to the epidermal side of the skin samples in their marketed formulations, i.e. Elidel® 1% cream (pimecrolimus) and Protopic® 0.1% ointment (tacrolimus), each in amounts of 300 mg. Samples of 100 μl are taken from the receptor phase at 5 time points during the 48-hours experiment and replaced by fresh receptor fluid. After addition of an internal standard (ASD732, see e.g. EP569337) the samples are directly analyzed by RPLC using MS-based detection. […] Specimens from the stripped skin are taken with a biopsy punch, weighed and then homogenized in 0.1 M sodium phosphate buffer, pH 7. Following addition of an internal standard (ASD732) and buffer of pH 10 to the homogenates, extraction is performed with tert-butyl methylether. Solvent from each extract obtained is evaporated, each residue obtained is redissolved and subjected to analysis by RPLC using MS-based detection. Receptor fluid samples are analyzed by RP-HPLC with MS detection in ESI positive mode (LC-MS/MS analysis). The MS/MS mode is used to increase selectivity. LC-MS/MS analysis is carried out with an Agilent 1100 Series Capillary LC System coupled to a Finnigan LCQ mass spectrometer. A Phenomenex Luna C18(2) column (3 μm, 100×2 mm) equipped with a precolumn is used and eluted isocratically with a flow rate of 100 μl/minute at 60°. The effluent is delivered unsplit to the ESI ion-source. Under the chromatographic conditions used, all compounds tested yield a strong sodium adduct. For MS/MS parent ions are selected. The quantification of the parent ions is based on the area ratio of the fragment ions to the fragment ion of the internal standard.

[1] = pre-treated skin compared with untreated skin

Row | SMILES | permeation rate increased by factor (CLO pre-treatment compared with untreated skin) | permeation rate increased by factor (HC-pre-treatment compared with untreated skin) | permeation rate increased by factor (MOM pre-treatment compared with untreated skin) | skin penetration (skin concentration) enhanced [1] | permeation rate of tacrolimus in comparison with pimecrolimus, times higher (CLO-pretreated skin) | permeation rate of tacrolimus in comparison with pimecrolimus, times higher (HC-pre-treated skin) | permeation rate of tacrolimus in comparison with pimecrolimus, times higher (MOM-pre-treated skin) | permeation rate increased by factors (corticosteroid pretreated samples (range over HC, MOM, CLO) compared with untreated skin) | skin penetration (skin concentration) enhanced, in words [1] | permeation rate of tacrolimus in comparison with pimecrolimus, times higher (untreated skin)
1 | CC[C@@H]1/C=C(\C)C[C@H](C)C[C@H](OC)[C@H]2O[C@@](O)(C(=O)C(=O)N3CCCC[C@H]3C(=O)O[C@H](/C(C)=C/[C@@H]3CC[C@H](Cl)[C@H](OC)C3)[C@H](C)[C@@H](O)CC1=O)[C@H](C)C[C@@H]2OC [pimecrolimus] | 4.1 | 3.8 | 2.9 | at least 10% | – | – | – | – | – | –
2 | C=CC[C@@H]1/C=C(\C)C[C@H](C)C[C@H](OC)[C@H]2O[C@@](O)(C(=O)C(=O)N3CCCC[C@H]3C(=O)O[C@H](/C(C)=C/[C@@H]3CC[C@H](O)[C@H](OC)C3)[C@H](C)[C@@H](O)CC1=O)[C@H](C)C[C@@H]2OC [tacrolimus] | – | – | – | – | 3.5 | 5.9 | 7.1 | 1.3-1.9 | not significantly | 11.2
